Activity calls are given as the source filed them.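 Rule for the calls: active = clearly stronger inhibition of the target decarboxylase than of the coupling enzymes tested in parallel without it; inactive = the rest.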

This experiment concerns the target diphosphomevalonate decarboxylase (Streptococcus pneumoniae D39). Description: S. pneumoniae DPM-DC inhibitor potency, dose response, biochemical, PK/LDH-coupled NADH fluorescence, hexokinase coupling counter-screen (AID 550). The conditions noted are these: purified DPM-DC. Background: Counterscreens check selectivity or assay interference.
For `Cc1c(C(=O)NC2CC2)oc2ccc(S(=O)(=O)N3CCCCCC3)cc12`, the outcome was inactive.

For `Cc1cc(N2CCOCC2)c2c(N)c(Br)cc(C)c2n1`, the result was inactive.

On to `CN(C)CCSc1nnc(-c2ccccc2)o1`, for which the result was inactive. What is called IC50 is the midpoint of a concentration-inhibition curve. `CCOC(=O)C1=C(C)NC(C)=C(C(=O)OCC)C1c1cc2ccc(C)cc2[nH]c1=O`: the half-maximal inhibitory concentration (IC50) is 150 µM. With `O/N=C1\CCC\C1=C/c1ccco1`, the outcome was inactive. Same read-out and setting: for `COCCn1nnnc1CN(Cc1cccnc1)Cc1cc2cc(OC)ccc2[nH]c1=O` the value was “inactive”; for `Cn1c(-c2ccc(N)cc2)nc2ccccc21`, “inactive”; for `Cc1ccc(C2C3=C(CC(C)(C)CC3=O)N(CCN3CCOCC3)C3=C2C(=O)CC(C)(C)C3)cc1`, “inactive”.

For the compound `O=C(CSc1nnnn1Cc1ccccc1)NCCc1ccccc1`, the outcome was inactive. The same measure, in the same setting: for `CCC(=O)Nc1cccc(NC(=O)CSc2nnnn2Cc2ccccc2)c1` the value was “inactive”; for `CCOC(=O)COc1ccc2nsnc2c1Cl`, “inactive”.

For `COc1cc(C(=O)Nc2ccc3c(c2)OCO3)ccc1-n1cnnn1`, the outcome was inactive. For `Cc1c(C(=O)NCc2ccc3c(c2)OCO3)sc2nc(-c3ccccc3)cn12`, the result was inactive.

In the case of `S=c1[nH]nc(-c2ccccc2)n1C1C=CCCC1` (stereo not given), the result was inactive.

Turning to `COc1cccc(C(=O)OCn2nnc3ccccc3c2=O)c1`, the result was inactive. Regarding `COc1ccc(C2C3=C(OC(C)=O)c4ccccc4C3=Nc3c2c(=O)n(C)c(=O)n3C)cc1` (stereo not given), the outcome was inactive.

For the compound `O=C(C1CCCCC1)N1CCC(c2nc3c(nnn3Cc3ccccc3Cl)c(=O)[nH]2)CC1`, the outcome was inactive.

As for `Cc1cc(=O)[nH]c(/N=C(\N)Nc2cccc3ccccc23)n1`, the outcome was inactive.

Consider `Cc1cccc(OCC(O)Cn2c(-n3nc(C)cc3C)nc3c2c(=O)[nH]c(=O)n3C)c1` (stereo not given), for which the result was inactive. On the same count and under the same terms, in the case of `CC(C)(CO)NC(=O)C(c1ccccc1)c1ccccc1` it was “inactive”; in that of `CCOC(=O)c1cncc(NC(=O)c2ccccc2)c1`, “inactive”; in that of `N#Cc1c(C(F)(F)F)cc(-c2ccco2)nc1SCc1ccncc1`, “inactive”. `Cc1cnc(SCCc2ccncc2)nc1C`: the outcome was inactive. The same measure, in the same setting: for `COc1cc2c(C#N)c(N3CCN(c4ccccc4OC)CC3)nc(N)c2c(N)n1` the value was “inactive”. On the same count and under the same terms, for `CN(C)C(=O)N1CCC(C(=O)NCc2cccs2)CC1` the value was “inactive”; for `COc1ccc(C(O)Cn2c(=N)n(CCCN(C)C)c3ccccc32)cc1` (stereo not given), “inactive”; for `CCN(CC)CCOC(=O)c1ccc(N=CC2=C(O)CC(C)(C)CC2=O)cc1`, “inactive”.

`CCOc1cc(NC(=O)c2ccco2)c(OCC)cc1NC(=O)CCc1ccc(OC)cc1`: the result was inactive. On the same count and under the same terms, in the case of `N#CC(C(=O)NC1CCCCC1)c1nc2ccccc2nc1N1CCCCC1` (stereo not given) it was “inactive”.

As to `O=C(Nc1ccc(N2CCCCC2)cc1)c1cccnc1`, the outcome was inactive. The same measure, in the same setting: for `COc1ccccc1CNc1ncnc2nc[nH]c12` the value was “inactive”. The same measure, in the same setting: for `Cn1c(=O)[nH]c(=O)c2c1nc(NC1CCCCC1)n2Cc1ccccc1` the value was “inactive”. The same measure, in the same setting: in the case of `Cc1ccc(S(=O)(=O)NCCN2CCOCC2)cc1C` it was “inactive”. On to `COc1cc(-c2nc3cnccc3n2C)cc(OC)c1OC`, for which the result was inactive. The same measure, in the same setting: in the case of `Cc1occc1C(=O)Nc1nnc(C(F)(F)F)s1` it was “inactive”. Regarding `COc1ccc(-c2cc(C(F)(F)F)nc(SCCC(=O)Nc3cc(C)on3)n2)cc1`, the result was inactive. On the same count and under the same terms, in the case of `COc1cc(NC(=O)c2ccco2)c(OC)cc1NC(=O)CCC(=O)Nc1cc(C)ccc1C` it was “inactive”; in that of `COc1cc(C2C(C#N)=C(C)NC3=C2C(=O)CC(C)(C)C3)cc(OC)c1O` (stereo not given), “inactive”. The same measure, in the same setting: in the case of `O=C1CC(c2cccnc2)c2cc3c(cc2N1)OCO3` (stereo not given) it was “inactive”; in that of `Cc1cccc(C(=O)Nc2cc(=O)n(C)c(=O)n2C)c1`, “inactive”.

As to `Cc1nc2oc3c(NCc4ccccn4)ncnc3c2c2c1COC(C)(C)C2`, the outcome was inactive. Turning to `CCOc1nc(-c2ccccc2)ccc1-c1noc(-c2ccc(OC)c(OC)c2)n1`, the outcome was inactive. On the same count and under the same terms, for `Clc1c(-c2nnc3n2CCC3)sc2ccccc12` the value was “inactive”; for `Cc1ccsc1C1C(C(=O)O)c2ccccc2C(=O)N1C` (stereo not given), “inactive”. Same read-out and setting: for `CC(C)CC(=O)NCC(C)NC(=O)CC(C)C` (stereo not given) the value was “inactive”; for `CCc1ccc(NC(=O)c2cnc3scc(C)n3c2=O)cc1`, “inactive”; for `CC1CC(C)CN(CCCNC(=O)Cn2ncc3c(=O)oc4ccccc4c32)C1` (stereo not given), “inactive”. On the same count and under the same terms, in the case of `CCN(CC)CCCN(Cc1cc2cc3c(cc2[nH]c1=O)OCCO3)C(=O)Nc1ccccc1` it was “inactive”; in that of `CCc1ccc(S(=O)(=O)NCc2cn3ccsc3n2)s1`, “inactive”; in that of `CCCCCn1c(SCC#N)nc2cc(C(=O)NCC3CCCO3)ccc2c1=O` (stereo not given), “inactive”. As for `CCCCC(=O)Nc1ccc(C(N)=O)cc1`, the result was inactive. Same read-out and setting: for `O=P1(NC2CCCC2)COc2ccccc2OC1` the value was “inactive”.

Turning to `CCCc1nnc(NC(=O)CN2CCOCC2)s1`, the outcome was inactive. Still for that read-out and setting: for `Cc1cc(-c2ccccc2)nc2cc(C(N)=O)nn12` the value was “inactive”; for `CCc1ccc(CCC(=O)Nc2ccc(C)c(C)c2)o1`, “inactive”. For the compound `COc1ccccc1NC(=O)C1=C(C)NC2=C(C(=O)CCC2)C1c1ccc2c(c1)OCO2` (stereo not given), the half-maximal inhibitory concentration (IC50) is 76.3 µM. For `Cc1ccc(C2C3CN(C(C)C)CC=C3C(C#N)=C(N)C2(C#N)C#N)cc1` (stereo not given), the IC50 is 39.6 µM. With `O=C1CCC(C(=O)N(Cc2ccco2)C2(C(=O)NC3CCCC3)CCCCC2)N1` (stereo not given), the outcome was inactive.

With `C/C=C/Cn1c(N(C)Cc2ccccc2)nc2c1c(=O)[nH]c(=O)n2C`, the outcome was inactive. Same read-out and setting: in the case of `Cc1nc2cc(NC(=O)NCc3ccco3)ccc2n1C` it was “inactive”.

For the compound `COc1cccc2cc3c(=O)n(-c4ccccc4)nc-3oc12`, the outcome was inactive. For `O=C(O)CCn1nnc(-c2cccs2)n1`, the outcome was inactive.

Turning to `O=C(c1ccccc1F)N(Cc1ccccc1)C1CCS(=O)(=O)C1` (stereo not given), the result was inactive. Still for that read-out and setting: for `CCOc1ccc(N(CC(=O)Nc2ccc(F)c(F)c2)S(=O)(=O)c2c(C)noc2C)cc1` the value was “inactive”; for `CC(=O)Nc1cccc(NC(=O)CSc2nnnn2Cc2ccccc2)c1`, “inactive”. Still for that read-out and setting: for `C=C(C)Cn1c(COc2ccccc2)nnc1SCC(=O)O` the value was “inactive”.

As for `COc1cc2c(cc1OC)/C(=C/C(=O)N1CCOCC1)NC(C)(C)C2`, the half-inhibitory concentration (IC50) is 38.8 µM. In the case of `O=S(=O)(Nc1cccc2ncccc12)c1cccs1`, the outcome was inactive. As for `CCOC(=O)c1c(Nc2nc(C)c(C(=O)NC)s2)sc(C)c1C`, the outcome was inactive.

With `Cc1cc(=O)oc2cc(OC(C)C(=O)O)c(Cl)cc12` (stereo not given), the outcome was inactive.

The values are drawn from PubChem BioAssay AID550 (SRMLSC, 2006).
